Laboratory results: the supplement of paper PMC10307832

Experiments:
Experiment in all cases: relative viability (nuclei count vs DMSO), 5 days (fraction); higher = more cells survive
[1] = compound: CC1CC(=O)N(C2=CN=C(N=C2N1C3CCCC3)NC4=C(C=C(C=C4)C(=O)NC5CCN(CC5)C)OC)C [NPK76-II-72-1] + CCNC(=O)c1noc(-c2cc(C(C)C)c(O)cc2O)c1-c1ccc(CN2CCOCC2)cc1 [Luminespib] (partner 0.01 µM)
Outline: (§1)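 A single step with final 0.05% Triton X-100, 1% formaldehyde and 1 ug/ml Hoechst fixed the cells and stained nuclei 5 days after treatment. Lung cancer cell lines in 1536-well plates had been treated by pin tool the day after seeding with one drug alone or a fixed anchor-drug dose plus five library-drug doses (not always all listed) in √10 steps, and nuclei were counted on 4× images. Relative viability is the ratio of nuclei in treated wells to nuclei in vehicle wells, taken as the median of duplicate plates.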

BI-2536 + Trametinib = compound: CC[C@@H]1C(=O)N(C)c2cnc(Nc3ccc(C(=O)NC4CCN(C)CC4)cc3OC)nc2N1C1CCCC1 [BI-2536] + CC(=O)Nc1cccc(-n2c(=O)n(C3CC3)c(=O)c3c(Nc4ccc(I)cc4F)n(C)c(=O)c(C)c32)c1 [Trametinib] (partner 0.02 µM)
Outline: as §1

BI-2536 + Linsitinib = compound: CC[C@@H]1C(=O)N(C)c2cnc(Nc3ccc(C(=O)NC4CCN(C)CC4)cc3OC)nc2N1C1CCCC1 [BI-2536] + C[C@]1(O)C[C@@H](c2nc(-c3ccc4ccc(-c5ccccc5)nc4c3)c3c(N)nccn32)C1 [Linsitinib] (partner 1 µM)
Outline: as §1

BI-2536 + Decitabine = compound: CC[C@@H]1C(=O)N(C)c2cnc(Nc3ccc(C(=O)NC4CCN(C)CC4)cc3OC)nc2N1C1CCCC1 [BI-2536] + Nc1ncn([C@H]2C[C@H](O)[C@@H](CO)O2)c(=O)n1 [Decitabine] (partner 2 µM)
Outline: as §1

Row | Cell Line | relative viability ([1]; first compound 0.01 µM) | relative viability ([1]; first compound 0.03162 µM) | relative viability ([1]; first compound 0.1 µM) | relative viability ([1]; first compound 0.3162 µM) | relative viability ([1]; first compound 1 µM) | relative viability (BI-2536 + Trametinib; first compound 0.01 µM) | relative viability (BI-2536 + Trametinib; first compound 0.03162 µM) | relative viability (BI-2536 + Trametinib; first compound 0.1 µM) | relative viability (BI-2536 + Trametinib; first compound 0.3162 µM) | relative viability (BI-2536 + Trametinib; first compound 1 µM) | relative viability (BI-2536 + Linsitinib; first compound 0.01 µM) | relative viability (BI-2536 + Linsitinib; first compound 0.03162 µM) | relative viability (BI-2536 + Linsitinib; first compound 0.1 µM) | relative viability (BI-2536 + Linsitinib; first compound 0.3162 µM) | relative viability (BI-2536 + Linsitinib; first compound 1 µM) | relative viability (BI-2536 + Decitabine; first compound 0.01 µM) | relative viability (BI-2536 + Decitabine; first compound 0.03162 µM) | relative viability (BI-2536 + Decitabine; first compound 0.1 µM) | relative viability (BI-2536 + Decitabine; first compound 0.3162 µM) | relative viability (BI-2536 + Decitabine; first compound 1 µM)
1 | 201T | 1.05 | 1.04 | 0.998 | 1.04 | 1.09 | 0.717 | 0.741 | 0.745 | 0.253 | 0.252 | 1.07 | 0.866 | 1.07 | 1 | 0.345 | 0.873 | 0.838 | 0.815 | 0.332 | 0.225
2 | A549 | – | – | – | – | – | – | – | – | – | – | 0.582 | 0.536 | 0.63 | 0.294 | 0.0483 | 0.26 | 0.315 | 0.246 | 0.0414 | 0.0226
3 | A-427 | 0.827 | 1.06 | 0.94 | 0.905 | 1.02 | 0.733 | 0.662 | 0.605 | 0.184 | 0.189 | 1.15 | 1.23 | 1.08 | 1.13 | 0.304 | 0.555 | 0.539 | 0.469 | 0.204 | 0.185
4 | ABC-1 | – | 0.389 | – | 0.543 | 0.522 | – | – | – | – | – | 0.816 | 0.838 | 0.895 | 0.292 | 0.253 | 1.04 | 0.989 | 0.385 | 0.397 | 0.467
5 | BEN | 0.326 | 0.332 | 0.325 | 0.403 | 0.329 | 1.05 | 0.813 | 0.959 | 0.515 | 0.435 | 0.876 | 0.874 | 0.83 | 0.658 | 0.222 | 0.699 | 0.72 | 0.429 | 0.366 | 0.421
6 | CAL-12T | 0.4 | 0.65 | 0.93 | 0.143 | 0.408 | 0.344 | 0.338 | 0.383 | 0.147 | 0.157 | 0.913 | 0.808 | 0.852 | 0.165 | 0.286 | – | – | – | – | –
7 | Calu-6 | – | – | – | – | – | – | – | – | – | – | 0.923 | 1.02 | 0.816 | 0.0855 | 0.0964 | – | – | – | – | –
8 | ChaGo-K-1 | 0.624 | 0.616 | 0.695 | 0.523 | 0.67 | 0.9 | 0.875 | 0.733 | 0.181 | 0.202 | – | – | – | – | – | 0.524 | 0.402 | 0.403 | 0.184 | 0.206
9 | EBC-1 | – | – | – | – | – | – | – | – | – | – | 0.966 | 0.797 | 0.863 | 0.172 | 0.154 | – | – | – | – | –
10 | HCC-78 | – | – | – | – | – | 0.829 | 0.837 | 0.814 | 0.562 | 0.246 | 0.613 | 0.481 | 0.511 | 0.52 | 0.207 | 0.678 | 0.692 | 0.694 | 0.363 | 0.331
11 | HCC-366 | – | – | – | – | – | 0.364 | 0.371 | 0.235 | 0.0287 | 0.0227 | 0.648 | 0.739 | 0.535 | 0.0173 | 0.0162 | 0.407 | 0.408 | 0.248 | 0.036 | 0.0402
12 | IA-LM | – | – | – | – | – | – | – | – | – | – | 0.641 | 0.55 | 0.774 | 0.104 | 0.164 | – | – | – | – | –
13 | NCI-H522 | 1.05 | 1.1 | 1.42 | 1.14 | 1.27 | 0.745 | 0.757 | 0.766 | 0.302 | 0.289 | – | – | – | – | – | 0.715 | 0.626 | 0.698 | 0.312 | 0.358
14 | NCI-H1299 | – | – | – | – | – | – | – | – | – | – | 1 | 0.971 | 0.974 | 0.245 | 0.363 | – | – | – | – | –
15 | NCI-H1563 | 0.5 | 0.627 | 0.578 | 0.519 | 0.504 | – | – | – | – | – | 1.17 | 1.19 | 1.22 | 0.73 | 0.766 | – | – | – | – | –
16 | NCI-H1623 | 0.448 | 0.382 | 0.513 | 0.421 | 0.574 | – | – | – | – | – | – | – | – | – | – | – | – | – | – | –
17 | NCI-H1648 | – | – | – | – | – | 0.463 | 0.409 | 0.434 | 0.28 | 0.289 | – | – | – | – | – | 0.536 | 0.451 | 0.447 | 0.195 | 0.29
18 | NCI-H1650 | 0.185 | 0.198 | 0.207 | 0.194 | 0.194 | 0.674 | 0.497 | 0.456 | 0.136 | 0.136 | – | – | – | – | – | 0.388 | 0.327 | 0.278 | 0.11 | 0.148
19 | NCI-H1703 | – | – | – | – | – | – | – | – | – | – | 0.77 | 0.296 | 0.574 | 0.117 | 0.0956 | – | – | – | – | –
20 | NCI-H2170 | 0.63 | 0.403 | 0.586 | 0.548 | 0.61 | 0.945 | 0.916 | 0.775 | 0.137 | 0.176 | – | – | – | – | – | 0.466 | 0.471 | 0.431 | 0.167 | 0.181
21 | NCI-H2228 | 0.177 | 0.143 | 0.174 | 0.133 | 0.166 | 0.312 | 0.51 | 0.184 | 0.107 | 0.089 | 0.692 | 1.06 | 0.63 | 0.116 | 0.155 | – | – | – | – | –
22 | NCI-H2342 | 0.653 | 0.6 | 0.67 | 0.548 | 0.709 | – | 0.705 | 0.73 | 0.604 | 0.454 | – | – | – | – | – | – | 0.732 | 0.637 | 0.514 | 0.433
23 | SW 900 | 0.183 | 0.19 | 0.171 | 0.169 | 0.169 | 0.929 | 0.942 | 0.875 | 0.828 | 0.147 | – | – | – | – | – | 0.433 | 0.458 | 0.384 | 0.28 | 0.203
